Measurements taken from patent publication US7517517B2 (Janssen Pharmaceutica N.V., priority 2002, dated 2009).

Molecular target: mGlu1 receptor (Rattus norvegicus, UniProt P23385)
Assay: [3H]Compound A binding and autoradiography on rat brain sections
Description: Tissue preparation. Male Wistar rats (200 g) were sacrificed by decapitation. Brains were immediately removed from the skull and were rapidly frozen in dry-ice-cooled 2-methylbutane (−40° C.). Brains were then stored at −70° C. until sectioning. Twenty-micrometer-thick sagittal sections were cut using a Leica C3050 cryostat microtome (Leica Microsystems, Wetzlar, Germany) and thaw-mounted on SuperFrost Plus microscope slides (Menzle-glaser, Germany). The sections were then kept at −70° C. until use.
Receptor autoradiography. Sections were thawed and dried under a stream of cold air, preincubated (3×5 min) in 50 mM Tris-HCl, 1.2 mM MgCl2, 2 mM CaCl2, 0.1% BSA pH 7.4 at room temperature. […] After the incubation, the excess of radioligand was washed off (3×5 min) in ice-cold buffer containing 50 mM Tris-HCl, 1.2 mM MgCl2 and 2 mM CaCl2, followed by a rapid dip in cold distilled water. The sections were dried under a stream of cold air and then exposed to [^3H]Hyperfilm (Amersham, UK) for 6 weeks at room temperature. The films were developed manually in Kodak D19 and fixed with Kodak Readymatic. Some sections were exposed to a Fuji Imaging Plate for 2 days at room temperature and scanned using a Fujix Bass 2000 phosphoimager.

[3H]c1ccc(CC(=O)c2ccc3nc4c(cc3c2)CCCO4)cc1 [[^3H]Compound A]
specific binding in autoradiography (CA3 field and dentate gyrus of hippocampal formation, thalamus, olfactory tubercle, amygdala, substantia nigra reticulata): moderate signal | specific binding in autoradiography (cerebral cortex, caudate putamen, ventral pallidum, nucleus accumbens): lower labelling | specific binding in autoradiography (molecular layer of the cerebellum): Very high specific binding
